Experimental data reported in US10414763B2 (CANCER RESEARCH TECHNOLOGY LIMITED, priority 2014, dated 2019).

Molecular target: T1, full-length human PKCι (Homo sapiens, UniProt P41743)
T1 construct: Recombinant, full-length human PKCι expressed in Sf21 insect cells is also commercially available; purchased EMD Millipore; host or cells: Sf21 insect cells (baculovirus)
T1 sequence (P41743 1-596): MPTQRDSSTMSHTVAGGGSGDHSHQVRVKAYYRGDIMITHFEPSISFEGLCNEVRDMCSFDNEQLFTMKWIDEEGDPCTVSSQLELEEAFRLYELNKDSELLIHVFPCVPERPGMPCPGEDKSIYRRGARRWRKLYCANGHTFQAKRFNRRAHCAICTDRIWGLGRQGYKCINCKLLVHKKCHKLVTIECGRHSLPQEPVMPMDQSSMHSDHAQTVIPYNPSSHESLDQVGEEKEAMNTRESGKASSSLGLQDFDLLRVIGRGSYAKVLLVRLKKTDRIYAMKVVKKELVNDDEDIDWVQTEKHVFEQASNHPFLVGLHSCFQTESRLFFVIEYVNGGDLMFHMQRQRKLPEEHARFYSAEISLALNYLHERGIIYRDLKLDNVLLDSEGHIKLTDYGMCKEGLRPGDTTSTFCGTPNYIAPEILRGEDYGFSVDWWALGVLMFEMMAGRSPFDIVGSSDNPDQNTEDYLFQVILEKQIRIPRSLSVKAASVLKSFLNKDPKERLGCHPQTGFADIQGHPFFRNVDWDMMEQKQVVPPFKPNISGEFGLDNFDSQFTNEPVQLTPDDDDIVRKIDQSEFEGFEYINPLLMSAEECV
Test: PKCι IC50 IMAP fluorescence polarisation assay, full-length enzyme, 150 μM ATP
Format: biochemical
Details: read-out: IC50 in IMAP assay against full length PKCi at 150 μM ATP
In short: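 IMAP fluorescence polarisation kinase assay: 15 pM baculovirus-expressed human PKCiota with 100 nM FAM-pseudosubstrate peptide and 150 μM ATP, 1 h at 25 °C. IMAP detection reagent then 2 h at 25 °C before FP measurement. Inhibition referenced to no-compound and no-enzyme controls for IC50 fitting.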

SMILES	IC50 [nM]
CC1(C)CNCCC1Nc1nc(-c2ccnc(Nc3ccc(F)cn3)c2)nc2cncc(C3CC3)c12 (centres unmarked) [Example 48, {5-Cyclopropyl-2-[2-(5-fluoro-pyridin-2-ylamino)-pyridin-4-yl]-pyrido[3,4-d]pyrimidin-4-yl}-(3,3-dimethyl-piperidin-4-yl)-amine]	< 100
CC(C)(C)c1csc(Nc2cc(-c3nc(N4CCNCC4)c4c(C5CC5)cncc4n3)ccn2)n1 [Example 52, (4-tert-Butyl-thiazol-2-yl)-[4-(5-cyclopropyl-4-pipcrazin-1-yl-pyrido[3,4-d]pyrimidin-2-yl)-pyridin-2-yl]-amine]	100 to 1000
CN(c1nc(-c2ccnc(Nc3nc(C4CC4)cs3)c2)nc2cncc(C3CC3)c12)C1CCNCC1(C)C (centres unmarked) [Example 53, {5-Cyclopropyl-2-[2-(4-cyclopropyl-thiazol-2-ylamino)-pyridin-4-yl]-pyrido[3,4-d]pyrimidin-4-yl}-(3,3-dimethyl-piperidin-4-yl)-methyl-amine]	100 to 1000
c1cncc(-c2cc3c(-c4nc(N5CCNCC5)c5c(C6CC6)cncc5n4)ccnc3[nH]2)c1 [Example 58, 5-Cyclopropyl-4-piperazin-1-yl-2-(2-pyridin-3-yl-1H-pyrrolo[2,3-b]pyridin-4-yl)-pyrido[3,4-d]pyrimidine]	< 100
CN(c1nc(-c2ccnc3[nH]c(-c4cccnc4)cc23)nc2cncc(C3CC3)c12)C1CCNCC1(C)C (centres unmarked) [Example 61, [5-Cyclopropyl-2-(2-pyridin-3-yl-1H-pyrrolo[2,3-b]pyridin-4-yl)-pyrido[3,4-d]pyrimidin-4-yl]-(3,3-dimethyl-piperidin-4-yl)-methyl-amine]	< 100
O=C(NC1CCCCC1)c1cc2c(-c3nc(N4CCNCC4)c4c(C5CC5)cncc4n3)ccnc2[nH]1 [Example 62, 4-(5-Cyclopropyl-4-piperazin-1-yl-pyrido[3,4-d]pyrimidin-2-yl)-1H-pyrrolo[2,3-b]pyridine-2-carboxylic acid cyclohexylamide]	< 100
FC(F)(F)c1cc2c(-c3nc(N4CCCC5NCCCC54)c4c(C5CC5)cncc4n3)ccnc2[nH]1 (centres unmarked) [Example 64, 5-Cyclopropyl-4-(octahydro-[1,5]naphthyridin-1-yl)-2-(2-trifluoromethyl-1H-pyrrolo[2,3-b]pyridin-4-yl)-pyrido[3,4-d]pyrimidine]	< 100
CN(c1nc(-c2ccnc3[nH]c(C(=O)NC4CCCCC4)cc23)nc2cncc(C3CC3)c12)C1CCNCC1(C)C (centres unmarked) [Example 66, 4-{5-Cyclopropyl-4-[(3,3-dimethyl-piperidin-4-yl)-methyl-amino]-pyrido[3,4-d]pyrimidin-2-yl}-1H-pyrrolo[2,3-b]pyridine-2-carboxylic acid cyclohexylamide]	< 100
CC1(C)CNCCC1Nc1nc(-c2ccnc(Nc3ncc(F)cc3F)c2)nc2cncc(C3CCC3)c12 (centres unmarked) [Example 68, {5-Cyclobutyl-2-[2-(3,5-difluoro-pyridin-2-ylamino)-pyridin-4-yl]-pyrido[3,4-d]pyrimidin-4-yl}-(3,3-dimethyl-piperidin-4-yl)-amine]	< 100
CC1(C)CNCCC1Nc1nc(-c2ccnc(Nc3nc(F)c(F)cc3F)c2)nc2cncc(C3CCC3)c12 (centres unmarked) [Example 71, {5-Cyclobutyl-2-[2-(3,5,6-trifluoro-pyridin-2-ylamino)-pyridin-4-yl]-pyrido[3,4-d]pyrimidin-4-yl}-(3,3-dimethyl-piperidin-4-yl)-amine]	< 100

Next, values leading:

IC50 [nM]	SMILES
< 100	CC1(C)CNCCC1Nc1nc(-c2ccnc(Nc3ncccc3F)c2)nc2cncc(C3CC3)c12 (centres unmarked) [Example 49, {5-Cyclopropyl-2-[2-(3-fluoro-pyridin-2-ylamino)-pyridin-4-yl]-pyrido[3,4-d]pyrimidin-4-yl}-(3,3-dimethyl-piperidin-4-yl)-amine]
< 100	CC1(C)CNCCC1Nc1nc(-c2ccnc(Nc3cc(F)ccn3)c2)nc2cncc(C3CC3)c12 (centres unmarked) [Example 50, {5-Cyclopropyl-2-[2-(4-fluoro-pyridin-2-ylamino)-pyridin-4-yl]-pyrido[3,4-d]pyrimidin-4-yl}-(3,3-dimethyl-piperidin-4-yl)-amine]
< 100	CC1(C)CNCCC1Nc1nc(-c2ccnc(Nc3cc(C(F)(F)F)ccn3)c2)nc2cncc(C3CC3)c12 (centres unmarked) [Example 51, {5-Cyclopropyl-2-[2-(4-trifluoromethyl-pyridin-2-ylamino)-pyridin-4-yl]-pyrido[3,4-d]pyrimidin-4-yl}-(3,3-dimethyl-piperidin-4-yl)-amine]
< 100	CN(C)CC#Cc1cc2c(-c3nc(N4CCNCC4)c4c(C5CCC5)cncc4n3)ccnc2[nH]1 [Example 55, {3-[4-(5-Cyclobutyl-4-piperazin-1-yl-pyrido[3,4-d]pyrimidin-2-yl)-1H-pyrrolo[2,3-b]pyridin-2-yl]-prop-2-ynyl}-dimethyl-amine]
< 100	c1ccc2c(c1)[nH]c1nccc(-c3nc(N4CCC5NCCC54)c4c(C5CCC5)cncc4n3)c12 (centres unmarked) [Example 59, 4-[5-Cyclobutyl-4-(hexahydro-pyrrolo[3,2-b]pyrrol-1-yl)-pyrido[3,4-d]pyrimidin-2-yl]-9H-pyrido[2,3-b]indole]
< 100	NC1CCC(Nc2nc(-c3ccnc4[nH]c5ccccc5c34)nc3cncc(C4CCC4)c23)C1 (centres unmarked) [Example 60, N-[5-Cyclobutyl-2-(9H-pyrido[2,3-b]indol-4-yl)-pyrido[3,4-d]pyrimidin-4-yl]-cyclopentane-1,3-diamine]
100 to 1000	O=S(=O)(Nc1cc(-c2nc(N3CCNCC3)c3c(C4CC4)cncc3n2)ccn1)c1ccc(F)cc1 [Example 65, N-[4-(5-Cyclopropyl-4-piperazin-1-yl-pyrido[3,4-d]pyrimidin-2-yl)-pyridin-2-yl]-4-fluoro-benzenesulfonamide]
< 100	CC1(C)CNCCC1Nc1nc(-c2ccnc(Nc3ccc(F)cn3)c2)nc2cncc(C3CCC3)c12 (centres unmarked) [Example 67, {5-Cyclobutyl-2-[2-(5-fluoro-pyridin-2-ylamino)-pyridin-4-yl]-pyrido[3,4-d]pyrimidin-4-yl}-(3,3-dimethyl-piperidin-4-yl)-amine]
< 100	CC1(C)CNCCC1Nc1nc(-c2ccnc(Nc3ncccc3F)c2)nc2cncc(C3CCC3)c12 (centres unmarked) [Example 70, {5-Cyclobutyl-2-[2-(3-fluoro-pyridin-2-ylamino)-pyridin-4-yl]-pyrido[3,4-d]pyrimidin-4-yl}-(3,3-dimethyl-piperidin-4-yl)-amine]
100 to 1000	CC(C)(C)c1csc(Nc2cc(-c3nc(NC4CCNCC4(C)C)c4c(C5CCC5)cncc4n3)ccn2)n1 (centres unmarked) [Example 72, {2-[2-(4-tert-Butyl-thiazol-2-ylamino)-pyridin-4-yl]-5-cyclobutyl-pyrido[3,4-d]pyrimidin-4-yl}-(3,3-dimethyl-piperidin-4-yl)-amine]
< 100	OC1CNCCCC1Nc1nc(-c2ccnc3[nH]c4ccccc4c23)nc2cncc(C3CCC3)c12 (centres unmarked) [Example 73, 4-[5-Cyclobutyl-2-(9H-pyrido[2,3-b]indol-4-yl)-pyrido[3,4-d]pyrimidin-4-ylamino]-azepan-3-ol]
< 100	CN(c1nc(-c2ccnc3[nH]c4ccccc4c23)nc2cncc(C3CCC3)c12)C1CC(N)C1 (centres unmarked) [Example 74, N-[5-Cyclobutyl-2-(9H-pyrido[2,3-b]indol-4-yl)-pyrido[3,4-d]pyrimidin-4-yl]-N-methyl-cyclobutane-1,3-diamine]
< 100	CN(c1nc(-c2ccnc3[nH]c4ccccc4c23)nc2cncc(C3CCC3)c12)C1CC(N)C1 (centres unmarked) [Example 75, N-[5-Cyclobutyl-2-(9H-pyrido[2,3-b]indol-4-yl)-pyrido[3,4-d]pyrimidin-4-yl]-N-methyl-cyclobutane-1,3-diamine]
